Measured values as given in ChEMBL document CHEMBL1201862, “PubChem BioAssay data set” (2004).
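Test compounds were applied to cells in 96-well plates for 48 hours at 5 doses. GI50: concentration for 50% inhibition of growth.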 Active and inactive are the calls of the source. No stated cut-off is given here; in the data, active = GI50 up to about 1.1 µM and inactive = higher.

What was measured:
Assay in all cases: DTP human tumour cell line panel, 48 h
[1] = tested on: U-251
[2] = tested on: HOP-62
[3] = tested on: SR
[4] = tested on: KM-20L2
[5] = tested on: UACC-257
[6] = tested on: NCI-H522
[7] = tested on: Malme-3M
[8] = tested on: CAKI-1
[9] = tested on: HT-29
[10] = tested on: HCT-15
[11] = tested on: RXF 393
[12] = tested on: SNB-75
[13] = tested on: M14
[14] = tested on: A549
[15] = tested on: OVCAR-3
[16] = tested on: LOX IMVI
[17] = tested on: MOLT-4
[18] = tested on: SF-268
[19] = tested on: EKVX
[20] = tested on: SK-MEL-28
[21] = tested on: OVCAR-5
[22] = tested on: RPMI-8226
[23] = tested on: NCI-H460
[24] = tested on: CCRF-CEM
[25] = tested on: HCC 2998
[26] = tested on: SN12C
[27] = tested on: IGROV-1
[28] = tested on: NCI-H23
[29] = tested on: NCI-H226
[30] = tested on: DLD-1
[31] = tested on: SK-OV-3
[32] = tested on: ACHN
[33] = tested on: HCT-116
[34] = tested on: 786-0
[35] = tested on: OVCAR-8
[36] = tested on: DMS-273
[37] = tested on: TK-10
[38] = tested on: SK-MEL-2
[39] = tested on: KM12
[40] = tested on: XF498
[41] = tested on: UO-31
[42] = tested on: SF-539
[43] = tested on: LXFL 529
[44] = tested on: SF-295
[45] = tested on: COLO 205
[46] = tested on: OVCAR-4
[47] = tested on: SW-620
[48] = tested on: UACC-62
[49] = tested on: HL-60
[50] = tested on: SNB-19
[51] = tested on: K562

## COC(=O)C1=CC2OC1(C)CCC2=O (stereo unspecified)
[1]
  GI50: > 100 µM (inactive)
[2]
  GI50: > 100 µM (inactive)
[3]
  GI50: 45.9 µM (inactive)
[4]
  GI50: > 100 µM (inactive)
[5]
  GI50: > 100 µM (inactive)
[6]
  GI50: 48.1 µM (inactive)
[7]
  GI50: 71.4 µM (inactive)
[8]
  GI50: 63 µM (inactive)
[9]
  GI50: > 100 µM (inactive)
[10]
  GI50: 67.9 µM
[11]
  GI50: > 100 µM (inactive)
[12]
  GI50: > 100 µM (inactive)
[13]
  GI50: 44.6 µM (inactive)
[14]
  GI50: > 100 µM (inactive)
[15]
  GI50: > 100 µM (inactive)
[16]
  GI50: > 100 µM (inactive)
[17]
  GI50: 45.9 µM (inactive)
[18]
  GI50: > 100 µM (inactive)
[19]
  GI50: > 100 µM (inactive)
[20]
  GI50: > 100 µM (inactive)
[21]
  GI50: > 100 µM (inactive)
[22]
  GI50: 47.6 µM (inactive)
[23]
  GI50: > 100 µM (inactive)
[24]
  GI50: 35.1 µM (inactive)
[25]
  GI50: > 100 µM (inactive)
[26]
  GI50: > 100 µM (inactive)
[27]
  GI50: > 100 µM (inactive)
[28]
  GI50: 99.3 µM (inactive)
[29]
  GI50: > 100 µM (inactive)
[30]
  GI50: 80.5 µM (inactive)
[31]
  GI50: > 100 µM (inactive)
[32]
  GI50: > 100 µM (inactive)
[33]
  GI50: 85.3 µM (inactive)
[34]
  GI50: > 100 µM (inactive)
[35]
  GI50: 50.1 µM (inactive)
[36]
  GI50: > 100 µM (inactive)
[37]
  GI50: > 100 µM (inactive)
[38]
  GI50: > 100 µM (inactive)
[39]
  GI50: > 100 µM (inactive)
[40]
  GI50: > 100 µM (inactive)
[41]
  GI50: > 100 µM (inactive)
[42]
  GI50: > 100 µM (inactive)
[43]
  GI50: > 100 µM (inactive)
[44]
  GI50: > 100 µM (inactive)
[45]
  GI50: > 100 µM (inactive)
[46]
  GI50: > 100 µM (inactive)
[47]
  GI50: 74.6 µM (inactive)
[48]
  GI50: > 10 µM (inactive)
[49]
  GI50: 26.9 µM (inactive)
[50]
  GI50: > 100 µM (inactive)
[51]
  GI50: 62.4 µM (inactive)
